Format in all cases: cell-based
The subject of assay [1] is human living skin explant. The assay can be described thus: TUNEL assay (UV-induced DNA damage) on human living skin explants. Particulars: UV irradiated. As to the method: (§1) human skin explants of an average diameter of 12 mm (±1 mm) were prepared on an abdoplasty coming from a person). The explants were kept in survival in BEM culture medium at 37° C. in a humid, 5%-CO2 atmosphere.
(§2) On day 0 (D0), day 1, day 2 and day 3 (3 hours before irradiation), the tested products were applied topically on surface of skin explants at the rate of 2 mg/cm^2, twice a day for D1 and D2 and once on DO and D3. […] The medium was half renewed (1 ml per well) on day 2.
(§3) On D3, the culture media of all the batches was replaced by HBSS solution (Hank's Balanced Saline Solution; 1 ml per explant). The batches “UV” were irradiated by UVA+ UVB using a UV simulator Vibert Lourmat RMX 3W with a dose of 18 J/cm2 of UVA (4 MED, minimal erythemal dose) and 0.3 J/cm2 of UVB (2 MED). The unirradiated batches were kept in HBSS in the dark. At the end of the irradiation the explants were put back in 2 mL of BEM medium.
(§4) After fixation for 24 hours in buffered formalin, the samples were dehydrated and impregnated in paraffin using a Leica PEARL dehydration automat. The samples were embedded using a Leica EG 1160 embedding station. 5-μm-thick sections were made using a Leica RM 2125 Minot-type microtome, and the sections were mounted on Superfrost® histological glass slides. The frozen samples were cut into 7-μm-thick sections using a Leica CM 3050 cryostat. Sections were then mounted on Superfrost® plus silanized glass slides. The microscopical observations were realized using a Leica DMLB or Olympus BX43 microscope. Pictures were digitized with a numeric DP72 Olympus camera with CellD storing software.
DNA oxidization is a type of damage that can be promoted by reactive oxygen species (ROS), generated by UV exposure. […] The staining was assessed by microscopical observation. Batches analyzed were T, TUV, P1UV, P2UV, P3UV at day 4 also referred to as TJ4, TUVJ4, P1UVJ4, P2UVJ4, P3UVJ4 (T=Control batch non treated non irradiated; TJ4=T at Day 4 (D4); TUV: control batch non treated UV irradiated; TUVJ4=[…] at Day 4; P1J4: product A 4% non irradiated at D4; P2J4: product A 2% non irradiated at D4; P3J4: product A 1% non irradiated at D4; P1UV: product A 4% UV irradiated; P1UVJ4: product A 4% UV irradiated at D4 P2UV: product A 2% UV irradiated; P2UVJ4: product A 2% UV irradiated at D4; P3UV: product A 1% UV irradiated; P3UVJ4: product A 1% UV irradiated at D4

The test system of assay [2] is human living skin explant. Briefly: Cell viability of human living skin explants (UV study). The conditions noted are these: non irradiated; day 4. As to the method: as §1, §2, §3, §4
In assay [3] the test system is living human skin explants. The assay can be described thus: Biochemical assay of MDA (lipid peroxidation) on living human skin explants exposed to pollutants. The procedure: Product A (Table 11) was diluted in water to obtain the following products at concentrations: product P1=A at 4%, product P2=A at 2% and product P3=A at 1%.
(§5) 59 human skin explants of an average diameter of 14 mm (±1 mm) were prepared on an abdoplasty coming from a person. The explants were kept in survival in BEM culture medium at 37° C. in a humid, 5%-CO2 atmosphere.
(§6) The tested products were topically applied on the basis of 2 μl per cm^2 and spread using a small spatula twice a day (morning and evening) on day 0, 1, 2, 3 and 4.
(§7) On D4, the explants of the batches ML and PML were placed on the 3D grid with 900 μl of HBSS and placed into the PolluBox® system.
(§8) 3 mL of the solution <<ML>> (supplemented with 150 μl/ml of NaCl 0.9%) were exposed by vaporization for 1 hour and half, as shown in the figure below.
The MDA assay was realized with an enhanced method of the TBARs (Thiobarbituric Acid Reactive Species) assay. The MDA was assayed in HBSS medium by addition of TBARs solution (thiobarbituric acid, hydrochloric acid and tricholoroacetic acid) and placed in a water bath (80° C. for 15 minutes). A lot of substances (like glucose) which are not related with lipoperoxidation, react with thiobarbituric acid (ThioBarbituric Acid Reagents=TBARS), so to enhance the specificity of the assay, the MDA was extracted by a liquid/liquid extraction with butanol. The MDA in butanol was measured in spectrofluorimetry (excitation: 515 nm, emission: 550 nm) using a Tecan Infinite M200 Pro microplate reader. Using this assay, MDA contained in the culture medium BEMc on […] was measured for the 4 explants per batch. The MDA concentration was expressed in pmol of MDA/ml of the medium. Concerned batches: all batches on day 5, 4 explants per batch.
The average of the blank batch TJ5 was calculated (154.0 nmol/L). Then, for each explant of MLJ5, this average value was subtracted from […]. That corresponds to calculating the delta (increase) of MDA induced by ML for each explant compared to the average of the batch without ML, it is ΔML.
These average deltas were then compared to the average delta of MDA induction without treatment (ΔML).

Assay [4] concerns human living skin explant. The assay can be described thus: Immunostaining of carbonylated proteins (FTZ) on human living skin explants. Particulars: UV irradiated. As to the method:
as §1, §2, §3, §4
Protein carbonylation is a type of protein oxidation that can be promoted by reactive oxygen species (ROS), generated by UV exposure. FTZ marker assay was conducted by immunostaining in the living epidermis of human skin explant as follows: Carbonylated proteins were stained on frozen sections with the anti-carbonylated proteins probe (fluorescein-5-thiosemicarbazid-FTZ) (Lifetechnologies, Ref. F-121) diluted at 0.5 μM in MES-Na+ and incubated for 30 minutes in the dark and at room temperature. The staining was observed by epifluorescence and assessed by microscopical observations. Batches analyzed were T, TUV, P1UV, P2UV, P3UV at day 4 also referred to as TJ4, TUVJ4, P1UVJ4, P2UVJ4, P3UVJ4

Assay [5] concerns Aryl hydrocarbon receptor (AhR). The assay can be described thus: Immunostaining of AHR in human skin explants, image analysis. The procedure: as §5, §6, §7, §8
Aryl hydrocarbon receptor (AhR) is a transcriptional factor implicated in molecular response following the exposure of several compounds, including aromatic polycyclic hydrocarbon and ozone (Haarmann-Stemmann et al. 2012.JID 132:7-9; Afaq et al., 2009 JID 129:2396-2403). AhR is involved in activation of cytochrome family genes and CYP450 detoxification enzymes. In presence of pollution AhR is dissociated from the protein complex (HSP90), translocated to the nucleus, dimerized with ARNt, and binds to the DNA on target genes (Cytochrome family—activated in response to xenobiotics) (Ikuta et al., 2009. Biochemical pharmacology. 77:588-596). […] The immunostaining was performed using an automated slide processing system (Autostainer, Dako) and assessed by microscopical observation. Concerned batches: all the batches
The images analyses were performed on all the images (9 to 12 images) of each batch using the CellD storing software (Olympus Microscopy, Matrix Optics (M)SdnBhd, Taman Mayhang, Maylasia). For each batch of explants, the percentage of the region of interest covered by the staining (stained surface percentage) was determined by image analysis. […]
The ΔML for each treatment P was calculated using the same method to obtain the ΔPML, i.e. the variation of the Surf % induced by the pollutants exposure when treated with P. […]

The mark [6] stands for this setting: after pollutants exposure, day 5.

The source of these data is patent US20210369583A1, “COMPOSITIONS FOR PROVIDING SKIN CARE BENEFITS AND METHODS OF USE” (Danisco US Inc., priority 2018, published 2021).

Marks after values point to notes of the source that are not given here.

For the compound `O=C(O)[C@@H]1CCCN1` [Combination P6, L-Proline], the “activity against UV-induced DNA damage” value in assay [1] is recorded as “totally inhibits the increase of DNA damage”. The “Cell Viability, variation vs TJ4” value in assay [2] was “↔ (indicates no variation)”. Moreover, the “MDA, variation ΔPML vs ΔML” value in assay [3] (MDA induction by pollutants, day 5) is given as −62%*. For the same compound, the “reduction of the increase of MDA” value in assay [3] (after pollutant exposure (ΔPML vs ΔML)) stood at 62%. Also, the “MDA, variation PML vs ML” value in assay [3] (setting [6]) is listed as −18%*. For the same compound, the “effect on UV-induced carbonylated proteins” value in assay [4] is recorded as “slightly inhibits the formation of carbonylated proteins”. The “AHR, variation PML vs ML” value in assay [5] (setting [6]) is −15%**. Besides, in assay [5] (without pollutants, D5), the “decrease of AhR expression compared to batch TJ5” value was found to be 63%. Also, in assay [5] (without pollutants, day 5), the “AHR, variation P vs T” value is on record as −63%*.
